According to article PMC5867641, “Function-Oriented Synthesis of Marine Phidianidine Derivatives as Potential PTP1B Inhibitors with Specific Selectivity” (Marine Drugs, 2018):
Like-named read-outs stand apart in the source and are kept apart here.

How the values were obtained:
PTP1B = target: T1, PTP1B (Homo sapiens, UniProt P18031); test: PTP1B inhibition assay with p-nitrophenyl phosphate (pNPP) as substrate; conditions: for % Inhibition (20 μM) on PTP1B: 20 μM compound, 2% DMSO; for inhibition at 20 µM: read-out: % Inhibition (20 μM) on PTP1B; for PTP1B inhibitory activity, in words: screened at 20 μM
T1 sequence (P18031 1-435): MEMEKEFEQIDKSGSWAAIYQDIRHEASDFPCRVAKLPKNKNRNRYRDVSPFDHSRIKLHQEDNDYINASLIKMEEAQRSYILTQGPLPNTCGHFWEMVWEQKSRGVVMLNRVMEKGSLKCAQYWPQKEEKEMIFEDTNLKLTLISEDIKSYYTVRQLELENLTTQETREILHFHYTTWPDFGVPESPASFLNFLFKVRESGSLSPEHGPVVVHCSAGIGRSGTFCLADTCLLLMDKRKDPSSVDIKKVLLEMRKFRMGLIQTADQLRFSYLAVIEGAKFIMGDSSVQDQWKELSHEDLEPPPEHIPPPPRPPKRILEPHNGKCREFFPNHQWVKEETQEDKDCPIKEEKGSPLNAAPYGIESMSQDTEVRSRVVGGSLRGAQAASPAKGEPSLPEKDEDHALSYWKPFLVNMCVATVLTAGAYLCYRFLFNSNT

[1] = target: T2, T-cell protein tyrosine phosphatase (TCPTP) (Homo sapiens, UniProt P17706); test: TCPTP inhibition assay (selectivity); type: biochemical; conditions: for inhibition at 20 µM / % Inhibition (20 μM) on TCPTP: 20 μM compound, 2% DMSO
T2 sequence (P17706 1-415): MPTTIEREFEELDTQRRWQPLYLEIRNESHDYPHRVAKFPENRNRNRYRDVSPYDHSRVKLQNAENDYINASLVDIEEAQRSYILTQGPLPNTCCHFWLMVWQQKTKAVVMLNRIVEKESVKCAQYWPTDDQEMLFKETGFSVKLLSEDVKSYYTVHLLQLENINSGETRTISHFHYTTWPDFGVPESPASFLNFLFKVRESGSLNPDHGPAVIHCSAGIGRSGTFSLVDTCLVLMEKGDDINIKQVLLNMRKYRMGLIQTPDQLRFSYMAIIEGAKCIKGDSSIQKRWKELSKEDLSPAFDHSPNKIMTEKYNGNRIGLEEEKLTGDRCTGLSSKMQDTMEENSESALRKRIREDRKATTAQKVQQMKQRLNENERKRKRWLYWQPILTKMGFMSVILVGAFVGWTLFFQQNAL
Protocol: The selectivity of all the PTP1B inhibitory compounds was also evaluated against TCPTP.

[2] = read-out: IC50 on PTP1B, pNPP substrate, dose-response run when inhibition >50% at 20 μM

How did the “% Inhibition (20 μM) on PTP1B” value (PTP1B; pNPP substrate) turn out when `NC(=NOC(=O)Cc1c[nH]c2ccccc12)c1ccccc1` [9a] was run?
The value was 7.3 ± 6.8%.

`NC(=NOC(=O)Cc1c[nH]c2ccccc12)c1ccc(F)cc1` [9b] was tested. Which “% Inhibition (20 μM) on PTP1B” value (PTP1B; pNPP substrate) did it give?
Its value is 14.0 ± 4.3%.

Which “% Inhibition (20 μM) on PTP1B” value (PTP1B; pNPP substrate) does the source give for `NC(=NOC(=O)Cc1c[nH]c2ccccc12)c1ccc(Cl)cc1` [9c] here?
The value was 5.2 ± 1.8%.

Which “% Inhibition (20 μM) on PTP1B” value (PTP1B; pNPP substrate) does the source give for `NC(=NOC(=O)Cc1c[nH]c2ccccc12)c1ccc([N+](=O)[O-])cc1` [9d] here?
Its value is 9.8 ± 7.1%.

With `CCc1ccc(C(N)=NOC(=O)Cc2c[nH]c3ccccc23)cc1` [9e] as the compound, how does the “% Inhibition (20 μM) on PTP1B” value (PTP1B; pNPP substrate) read?
The value was 23.4 ± 3.7%.

For `c1ccc(-c2noc(Cc3c[nH]c4ccccc34)n2)cc1` [10a], which “% Inhibition (20 μM) on PTP1B” value (PTP1B; pNPP substrate) is on record?
Its value is 2.4 ± 1.2%.

`Fc1ccc(-c2noc(Cc3c[nH]c4ccccc34)n2)cc1` [10b] was tested. Which “% Inhibition (20 μM) on PTP1B” value (PTP1B; pNPP substrate) did it give?
The value was 19.8 ± 0.1%.

For `Clc1ccc(-c2noc(Cc3c[nH]c4ccccc34)n2)cc1` [10c], which “% Inhibition (20 μM) on PTP1B” value (PTP1B; pNPP substrate) is on record?
The value was 40.0 ± 7.6%.

`O=[N+]([O-])c1ccc(-c2noc(Cc3c[nH]c4ccccc34)n2)cc1` [10d] was tested. Which “% Inhibition (20 μM) on PTP1B” value (PTP1B; pNPP substrate) did it give?
Its value is 44.5 ± 0.3%.

With `CCc1ccc(-c2noc(Cc3c[nH]c4ccccc34)n2)cc1` [10e] as the compound, how does the inhibition at 20 µM [1] read?
The inhibition at 20 µM was 15.8%.

And the IC50 (PTP1B)?
Its IC50 is 16.8 µM.

And the inhibition at 20 µM (PTP1B)?
The inhibition at 20 µM was 50.5 ± 1.1%.

`CCc1ccc(C(=O)ON=C(N)Cc2c[nH]c3ccccc23)cc1` [13a] was tested. Which IC50 (PTP1B; [2]) did it give?
The IC50 was > 20 µM.

How did the IC50 (PTP1B; [2]) turn out when `CCCCCCc1ccc(C(=O)ON=C(N)Cc2c[nH]c3ccccc23)cc1` [13c] was run?
The IC50 was > 20 µM.

With `NC(Cc1c[nH]c2ccccc12)=NOC(=O)c1ccccc1F` [13d] as the compound, how does the IC50 (PTP1B; [2]) read?
Its IC50 is > 20 µM.

For `NC(Cc1c[nH]c2ccccc12)=NOC(=O)c1ccc(C(F)(F)F)cc1` [13e], which IC50 (PTP1B; [2]) is on record?
The IC50 was > 20 µM.

For `COc1ccc(C(=O)ON=C(N)Cc2c[nH]c3ccccc23)cc1` [13f], which IC50 (PTP1B; [2]) is on record?
The IC50 was > 20 µM.

With `COc1ccc(C(=O)ON=C(N)Cc2c[nH]c3ccccc23)c(Br)c1` [13g] as the compound, how does the IC50 (PTP1B; [2]) read?
The IC50 was > 20 µM.

`CCCCC(=O)ON=C(N)Cc1c[nH]c2ccccc12` [13h] was tested. Which IC50 (PTP1B; [2]) did it give?
Its IC50 is > 20 µM.

For `NC(Cc1c[nH]c2ccccc12)=NOC(=O)CCCCBr` [13i], which IC50 (PTP1B; [2]) is on record?
The IC50 was > 20 µM.

With `CCc1ccc(-c2nc(Cc3c[nH]c4ccccc34)no2)cc1` [14a] as the compound, how does the inhibition at 20 µM [1] read?
The inhibition at 20 µM was 9.22%.

And the IC50 (PTP1B)?
Its IC50 is 13.5 ± 0.6 µM.

With `CCCCc1ccc(-c2nc(Cc3c[nH]c4ccccc34)no2)cc1` [14b] as the compound, how does the “% Inhibition (20 μM) on TCPTP” value [1] read?
The value was 50.31%.

And the IC50 (PTP1B; [2])?
Its IC50 is 7.1 ± 0.1 µM.

With `CCCCCCc1ccc(-c2nc(Cc3c[nH]c4ccccc34)no2)cc1` [14c] as the compound, how does the “% Inhibition (20 μM) on TCPTP” value [1] read?
Its value is 54.18%.

What about the IC50 (PTP1B; [2]) of the same compound?
Its IC50 is 4.9 ± 0.8 µM.

`Fc1ccccc1-c1nc(Cc2c[nH]c3ccccc23)no1` [14d] was tested. Which IC50 (PTP1B; [2]) did it give?
Its IC50 is > 20 µM.

And the “PTP1B inhibitory activity, in words” value (PTP1B)?
The value was “no activity”.

How did the IC50 (PTP1B; [2]) turn out when `FC(F)(F)c1ccc(-c2nc(Cc3c[nH]c4ccccc34)no2)cc1` [14e] was run?
The IC50 was > 20 µM.

What does the source list for `COc1ccc(-c2nc(Cc3c[nH]c4ccccc34)no2)cc1` [14f]?
IC50 (PTP1B; [2]): > 20 µM; PTP1B inhibitory activity, in words (PTP1B): no activity

Which IC50 (PTP1B; [2]) does the source give for `COc1ccc(-c2nc(Cc3c[nH]c4ccccc34)no2)c(Br)c1` [14g] here?
The IC50 was > 20 µM.

For `CCCCc1nc(Cc2c[nH]c3ccccc23)no1` [14h], which IC50 (PTP1B; [2]) is on record?
Its IC50 is > 20 µM.

What about the “PTP1B inhibitory activity, in words” value (PTP1B) of the same compound?
Its value is “disappearance of the inhibitory activity”.

Which IC50 (PTP1B; [2]) does the source give for `CC(=O)OCCCCc1nc(Cc2c[nH]c3ccccc23)no1` [14i] here?
Its IC50 is > 20 µM.

What about the “PTP1B inhibitory activity, in words” value (PTP1B) of the same compound?
Its value is “disappearance of the inhibitory activity”.

Which IC50 (PTP1B; [2]) does the source give for `CC(C)c1nc(Cc2c[nH]c3ccccc23)no1` [14j] here?
The IC50 was > 20 µM.

For `ClC(Cl)c1nc(Cc2c[nH]c3ccccc23)no1` [14k], which IC50 (PTP1B; [2]) is on record?
Its IC50 is > 20 µM.

How did the “% Inhibition (20 μM) on TCPTP” value [1] turn out when `c1ccc2c(Cc3noc(C4CCC4)n3)c[nH]c2c1` [14l] was run?
Its value is 25.52%.

And the IC50 (PTP1B; [2])?
The IC50 was 8.6 ± 1.5 µM.

Which IC50 (PTP1B; [2]) does the source give for `c1ccc2c(Cc3noc(C4CCCC4)n3)c[nH]c2c1` [14m] here?
Its IC50 is > 20 µM.

And the “PTP1B inhibitory activity, in words” value (PTP1B)?
Its value is “lack of activity”.

Which “% Inhibition (20 μM) on TCPTP” value [1] does the source give for `c1ccc2c(Cc3noc(C4CCCCC4)n3)c[nH]c2c1` [14n] here?
Its value is 11.68%.

And the “TCPTP inhibitory activity, in words” value ([1]; at the concentration of 20 μM)?
The value was “lowest inhibitory percentage”.

What about the IC50 (PTP1B; [2]) of the same compound?
The IC50 was 5.3 ± 0.7 µM.

How did the IC50 (PTP1B; [2]) turn out when `c1ccc(-c2nc(Cc3c[nH]c4ccccc34)no2)nc1` [14o] was run?
The IC50 was > 20 µM.

Which IC50 (PTP1B; [2]) does the source give for `Fc1ccc2[nH]cc(Cc3nc(Cc4c[nH]c5ccccc45)no3)c2c1` [14q] here?
Its IC50 is > 20 µM.

For `Brc1ccc2[nH]cc(Cc3nc(Cc4c[nH]c5ccccc45)no3)c2c1` [14s], which “% Inhibition (20 μM) on TCPTP” value [1] is on record?
The value was 34.51%.

What about the IC50 (PTP1B; [2]) of the same compound?
Its IC50 is 7.4 ± 0.1 µM.

Which results are given for `Clc1cccc2[nH]cc(Cc3nc(Cc4c[nH]c5ccccc45)no3)c12` [14u]?
% Inhibition (20 μM) on TCPTP [1]: 38.74%; IC50 (PTP1B; [2]): 9.7 ± 1.7 µM

With `N=C(N)NCCCCCNc1noc(Cc2c[nH]c3ccccc23)n1` [Phidianidine B (2), phidianidine B, reference compound] as the compound, how does the inhibition at 20 µM (PTP1B) read?
The inhibition at 20 µM was 23.5 ± 2.6%.
